In US20230286973A1, “PROTEIN SECRETION INHIBITORS” (KEZAR LIFE SCIENCES, priority 2020, published 2023):

Columns and labels:
[1] = test system: PD1-ss+10aa/Gaussia Luciferase; assay: Dox-Induced PD1-ss-Gluc Assay; format: cell-based; settings: 24 hr Dox induction; 293FRT/TO cells; read-out: 24 hr Dox Inducible PD1ssGluc 293FRT/TO: Mean IC50
Summary of the method: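 Doxycycline-induced expression of a PD1-ss+10aa/Gaussia luciferase reporter is measured in stable Flp-In 293 T-REx cells. Compound dilutions containing doxycycline are added one day after plating and incubated at 37 °C, 5% CO2. Values for unassigned stereocentres refer to stereoisomer mixtures.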

[2] = test system: TNFα-FL/Gaussia Luciferase; assay: Dox Induced TNFα-FL-Gluc Assay; format: cell-based; settings: for IC50: 24 hr Dox induction, 293FRT/TO cells, read-out: 24 hr Dox Inducible TNFaFLGluc 293FRT/TO: Mean IC50; for 24 hr Dox Inducible TNFaFLGluc 293FRT/TO: TNF/PD1: ratio of TNFaFLGluc IC50 to PD1ssGluc IC50
Summary of the method: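 Doxycycline-inducible Gaussia luciferase-tagged full-length TNFα (1-233) was expressed in stable Flp-In 293 T-REx cells. Compounds were co-added with doxycycline and incubated at 37 °C, 5% CO2.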

[3] = test system: HER3-ss+4aa/Gaussia Luciferase; assay: Dox-Induced Her3-ss-Gluc Assay; format: cell-based; settings: 24 hr Dox induction; 293FRT/TO cells; read-out: 24 hr Dox Inducible Her3(ss + 4)Gluc 293FRT/TO: Mean IC50
Summary of the method: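 Reporter line: Flp-In 293 T-REx, T-REx-regulated HER3-ss+4aa fused to Gaussia luciferase. Compound co-added with doxycycline after overnight plating, 37° C., 5% CO2.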

[4] = test system: IL-2-FL/Gaussia Luciferase; assay: Dox Induced IL2-FL-Gluc Assay; format: cell-based; settings: for IC50: 24 hr Dox induction, 293FRT/TO cells, read-out: 24 hr Dox Inducible IL2FLGluc 293FRT/TO: Mean IC50; for 24 hr Dox Inducible IL2FLGluc 293FRT/TO: IL2/PD1: ratio of IL2FLGluc IC50 to PD1ssGluc IC50
Summary of the method: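 Doxycycline induces an IL-2(1-153)–Gaussia luciferase fusion in a stable Flp-In 293 T-REx line. Compound exposure runs alongside induction at 37° C.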

[5] = test system: multiple myeloma cell line NCI-H929; assay: H929 Cell Viability Assay; format: cell-based, human; settings: Homo sapiens, NCI-H929, 48 h, NCI-H929 cells, Celltiter-Glo
Summary of the method: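 Viability is scored by CellTiter-Glo luminescence following a 48-hour treatment at 37° C. Data for structures shown without stereochemistry refer to stereoisomer mixtures.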

[6] = test system: multiple myeloma cell line U266B1; assay: U266 Cell Viability Assay; format: cell-based, human; settings: Homo sapiens, U-266, 48 h, U266B1 cells, Celltiter-Glo
Summary of the method: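 Viability is measured as luciferase signal from CellTiter-Glo following a 48-hour incubation with compound at 37° C. under 5% CO2. Where structures lack drawn stereochemistry, values refer to stereoisomer mixtures.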

[7] = Liver Microsome Stability Assay (rat); settings: rat liver microsomes, with NADPH, 1.0 uM compound
Protocol: (§1) Stability of a compound was assessed in the presence of liver microsomes from various sources—mouse, rat, monkey and human liver microsomes. 1.0 uM compound, 0.4% DMSO in 0.1 M Potassium Phosphate with 1.0 mg/mL liver microsomes, were incubated at 37° C. with or without 1 mM NADPH. The samples were quenched at 0, and 30 minutes.

[8] = Liver Microsome Stability Assay (mouse); settings: mouse liver microsomes, with NADPH, 1.0 uM compound
Protocol: as §1

[9] = Liver Microsome Stability Assay (human); settings: human liver microsomes, with NADPH, 1.0 uM compound
Protocol: as §1

[10] = Liver Microsome Stability Assay (monkey); settings: monkey liver microsomes, with NADPH, 1.0 uM compound
Protocol: as §1

Row | SMILES | IC50 [1] [µM] | IC50 [2] [µM] | IC50 [3] [µM] | IC50 [4] [µM] | EC50 [5] [µM] | EC50 [6] [µM] | Liver Microsome Stability (Multiple Species): Rat - % Remaining after 30 min w/NADPH [7] [%] | Liver Microsome Stability (Multiple Species): Mouse - % Remaining after 30 min w/NADPH [8] [%] | Liver Microsome Stability (Multiple Species): Human - % Remaining after 30 min w/NADPH [9] [%] | Liver Microsome Stability (Multiple Species): Monkey - % Remaining after 30 min w/NADPH [10] [%] | 24 hr Dox Inducible TNFaFLGluc 293FRT/TO: TNF/PD1 [2] | 24 hr Dox Inducible IL2FLGluc 293FRT/TO: IL2/PD1 [4]
1 | O=C(Nc1nc(/C=C/c2cn3ccccc3n2)cs1)c1cccn1Cc1ccncc1 [Compound B50, (E)-N-(4-(2-(imidazo[1,2-a]pyridin-2-yl)vinyl)thiazol-2-yl)-1-(pyridin-4-ylmethyl)-1H-pyrrole-2-carboxamide] | 0.339 | > 25 | 11.4 | > 25 | 18.8 | > 24.6 | 0.06 | 0.94 | 1.21 | 0.74 | >73.7 | >74
2 | Cc1nc(/C=C/c2csc(NC(=O)c3cccn3Cc3ccncc3)n2)cn1C [Compound B51, (E)-N-(4-(2-(1,2-dimethyl-1H-imidazol-4-yl)vinyl)thiazol-2-yl)-1-(pyridin-4-ylmethyl)-1H-pyrrole-2-carboxamide] | 5.38 | > 25 | > 25 | > 25 | > 25 | > 25 | 1.43 | 6.7 | 0.21 | 0.27 | >4.65 | >4.6
3 | O=C(Nc1nc(/C=C/c2cn(C3CCCCC3)cn2)cs1)c1cccn1Cc1ccnc(F)c1 [Compound B55, (E)-N-(4-(2-(1-cyclohexyl-1H-imidazol-4-yl)vinyl)thiazol-2-yl)-1-((2-fluoropyridin-4-yl)methyl)-1H-pyrrole-2-carboxamide] | 0.0253 | 6.62 | 1.17 | 2.01 | > 20.8 | > 25 | 0.3 | 1.7 | 0.41 | 0.4 | 262 | 79
4 | COCCn1cnc(/C=C/c2csc(NC(=O)c3cccn3Cc3ccncc3)n2)c1 [Compound B56, (E)-N-(4-(2-(1-(2-methoxyethyl)-1H-imidazol-4-yl)vinyl)thiazol-2-yl)-1-(pyridin-4-ylmethyl)-1H-pyrrole-2-carboxamide] | 0.52 | > 25 | > 25 | > 25 | > 25 | > 25 | 0.57 | 1.72 | 0.46 | 0.27 | >48.0 | >48

Further molecules by falling IC50 [1], results first:

Row | IC50 [1] [µM] | IC50 [2] [µM] | IC50 [3] [µM] | IC50 [4] [µM] | EC50 [5] [µM] | EC50 [6] [µM] | Liver Microsome Stability (Multiple Species): Rat - % Remaining after 30 min w/NADPH [7] [%] | Liver Microsome Stability (Multiple Species): Mouse - % Remaining after 30 min w/NADPH [8] [%] | Liver Microsome Stability (Multiple Species): Human - % Remaining after 30 min w/NADPH [9] [%] | Liver Microsome Stability (Multiple Species): Monkey - % Remaining after 30 min w/NADPH [10] [%] | SMILES | 24 hr Dox Inducible TNFaFLGluc 293FRT/TO: TNF/PD1 [2] | 24 hr Dox Inducible IL2FLGluc 293FRT/TO: IL2/PD1 [4]
5 | 0.0415 | 18.8 | 5.75 | 14.5 | > 25 | > 25 | 0.41 | 30.8 | 2.81 | 1.45 | Cc1ocnc1/C=C/c1csc(NC(=O)c2cccn2Cc2ccnc(F)c2)n1 [Compound B47, (E)-1-((2-fluoropyridin-4-yl)methyl)-N-(4-(2-(5-methyloxazol-4-yl)vinyl)thiazol-2-yl)-1H-pyrrole-2-carboxamide] | 454 | 350
6 | 0.0381 | 3.84 | 0.878 | 1.67 | 11.2 | > 25 | 2.11 | 14.5 | 5.98 | 1.39 | O=C(Nc1nc(/C=C/c2ncoc2C2CCCCC2)cs1)c1cccn1Cc1ccnc(F)c1 [Compound B53, (E)-N-(4-(2-(5-cyclohexyloxazol-4-yl)vinyl)thiazol-2-yl)-1-((2-fluoropyridin-4-yl)methyl)-1H-pyrrole-2-carboxamide] | 101 | 44
7 | 0.0274 | 2.51 | 0.131 | 1.26 | 11.2 | > 19.1 | 4.13 | 12.5 | 1.53 | 1.51 | Cc1ccc(/C=C/c2csc(NC(=O)c3cccn3Cc3ccnc(F)c3)n2)nc1F [Compound B49, (E)-N-(4-(2-(6-fluoro-5-methylpyridin-2-yl)vinyl)thiazol-2-yl)-1-((2-fluoropyridin-4-yl)methyl)-1H-pyrrole-2-carboxamide] | 91.4 | 46
8 | 0.0255 | 4.84 | 0.735 | 2.1 | 15.9 | > 25 | 4.04 | 32.1 | 5.82 | 10.8 | O=C(Nc1nc(/C=C/c2ncoc2C2CCCCC2)cs1)c1cccn1Cc1ccncc1 [Compound B52, (E)-N-(4-(2-(5-cyclohexyloxazol-4-yl)vinyl)thiazol-2-yl)-1-(pyridin-4-ylmethyl)-1H-pyrrole-2-carboxamide] | 190 | 82
9 | 0.0225 | 4.14 | 0.127 | 0.576 | > 25 | > 25 | 1.44 | 1.17 | 8.85 | 1.39 | Cc1ccc(/C=C/c2csc(NC(=O)c3cccn3Cc3ccncc3)n2)nc1F [Compound B48, (E)-N-(4-(2-(6-fluoro-5-methylpyridin-2-yl)vinyl)thiazol-2-yl)-1-(pyridin-4-ylmethyl)-1H-pyrrole-2-carboxamide] | 184 | 26
10 | 0.00685 | 9.42 | 2.95 | 5.52 | 13.9 | > 23.6 | 4.57 | 4.16 | 0.4 | 2.69 | O=C(Nc1nc(/C=C/c2cn(C3CCCCC3)cn2)cs1)c1cccn1Cc1ccncc1 [Compound B54, (E)-N-(4-(2-(1-cyclohexyl-1H-imidazol-4-yl)vinyl)thiazol-2-yl)-1-(pyridin-4-ylmethyl)-1H-pyrrole-2-carboxamide] | 1370 | 810
